From patent US7119121B2, “3,3-diphenylpropylamines useful in therapy” (Pfizer Inc., priority 2003, dated 2006) come the findings set out here.

The target in data set [1] is T1, muscarinic receptor subtype M4 (Homo sapiens, UniProt P08173).
T1 construct: purchased Receptor Biology division of Perkin Elmer Life Sciences (Beltsville, Md.)
T1 sequence (P08173 1-479): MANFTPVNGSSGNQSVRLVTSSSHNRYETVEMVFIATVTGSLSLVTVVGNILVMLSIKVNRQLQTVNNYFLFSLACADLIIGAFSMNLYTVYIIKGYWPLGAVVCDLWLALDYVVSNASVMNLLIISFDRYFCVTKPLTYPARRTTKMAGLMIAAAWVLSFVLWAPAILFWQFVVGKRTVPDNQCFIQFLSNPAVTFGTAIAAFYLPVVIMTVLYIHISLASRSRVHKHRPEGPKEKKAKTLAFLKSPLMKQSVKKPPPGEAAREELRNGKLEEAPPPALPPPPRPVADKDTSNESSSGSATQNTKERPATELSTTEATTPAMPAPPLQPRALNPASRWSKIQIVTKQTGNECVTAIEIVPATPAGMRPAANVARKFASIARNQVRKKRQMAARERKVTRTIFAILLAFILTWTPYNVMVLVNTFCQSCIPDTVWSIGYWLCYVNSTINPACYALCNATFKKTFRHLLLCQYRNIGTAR
The data set is described as follows: In vitro muscarinic receptor binding assay ([3H]NMS competition, SPA). The note with it: cloned human receptors in CHO cell membranes, [3H]N-methylscopolamine, average of four determinations. The procedure:
(§1) Affinities of test compounds for muscarinic receptor subtypes M1–M4 were determined. Competition radioligand binding experiments employed 11 drug concentrations run in duplicate. [^3H]N-methylscopolamine (NMS) was used as an antagonist radioligand, at the concentration equal to its equilibrium dissociation constant (Kd) for each receptor subtype. […] Total binding was determined with phosphate buffered saline (PBS). Cloned human receptors permanently expressed in CHO cells were the source of all binding sites. Membranes were purchased from Receptor Biology division of Perkin Elmer Life Sciences (Beltsville, Md.). The assays were run in scintillation proximity assay (SPA) format. Binding mixtures were made in flexible, 96-well, Wallac Micro-Beta plates by the addition of 11 μl of drug dilution, 11 μl of radioligand, and 178 μl of membrane/SPA bead suspension (100 mg of WGA-coated SPA beads, incubated with 5–15 μg protein/plate in 10 ml PBS for 30 min at room temperature, followed by low-speed centrifugation and resuspension in 2 ml PBS). After sealing and incubation at room temperature for 1 hour the plates were counted in a Wallac Micro-Beta scintillation counter. IC50 values were estimated by fitting the data to a one-site competition model: Y=T/(1+10^log(x)−log(IC50)), where Y is the specific CPM's bound at concentration X, and T is the specific CPM's bound in the absence of competitor. Inhibition constants (Ki) were calculated using the Cheng-Prushoff equation (Cheng, Y; Prushoff, W H, Biochem Pharmacol 22: 3099–3108, 1973). Curve fitting and Ki calculations were carried out using GraphPad Prism, version 3.0 (San Diego, Calif.).
(§2) Results are the average of four separate determinations. In vitro Binding

Data set [2] has as its target T2, muscarinic receptor subtype M1 (Homo sapiens, UniProt P11229).
T2 construct: purchased Receptor Biology division of Perkin Elmer Life Sciences (Beltsville, Md.)
T2 sequence (P11229 1-460): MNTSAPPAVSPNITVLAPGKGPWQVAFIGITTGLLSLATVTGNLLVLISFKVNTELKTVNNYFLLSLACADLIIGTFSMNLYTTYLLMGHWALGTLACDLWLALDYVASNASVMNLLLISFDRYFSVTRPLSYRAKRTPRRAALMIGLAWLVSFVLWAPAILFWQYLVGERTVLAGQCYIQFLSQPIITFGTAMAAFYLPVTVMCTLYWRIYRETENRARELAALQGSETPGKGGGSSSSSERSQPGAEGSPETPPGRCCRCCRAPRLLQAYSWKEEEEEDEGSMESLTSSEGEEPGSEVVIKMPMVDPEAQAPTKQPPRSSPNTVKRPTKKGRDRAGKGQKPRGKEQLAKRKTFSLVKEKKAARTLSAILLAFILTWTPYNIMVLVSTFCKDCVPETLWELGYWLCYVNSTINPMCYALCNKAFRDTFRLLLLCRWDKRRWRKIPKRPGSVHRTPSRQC
Described as above. The note with it: cloned human receptors in CHO cell membranes, [3H]N-methylscopolamine, average of four determinations. The procedure: as §1, §2

Data set [3] concerns the target T3, muscarinic receptor subtype M3 (Homo sapiens, UniProt P20309).
T3 construct: purchased Receptor Biology division of Perkin Elmer Life Sciences (Beltsville, Md.)
Described as above. The conditions noted are these: cloned human receptors in CHO cell membranes, [3H]N-methylscopolamine, average of four determinations. The procedure: as §1, §2

Data set [4] deals with T4, muscarinic receptor subtype M2 (Homo sapiens, UniProt P08172).
T4 construct: purchased Receptor Biology division of Perkin Elmer Life Sciences (Beltsville, Md.)
T4 sequence (P08172 1-466): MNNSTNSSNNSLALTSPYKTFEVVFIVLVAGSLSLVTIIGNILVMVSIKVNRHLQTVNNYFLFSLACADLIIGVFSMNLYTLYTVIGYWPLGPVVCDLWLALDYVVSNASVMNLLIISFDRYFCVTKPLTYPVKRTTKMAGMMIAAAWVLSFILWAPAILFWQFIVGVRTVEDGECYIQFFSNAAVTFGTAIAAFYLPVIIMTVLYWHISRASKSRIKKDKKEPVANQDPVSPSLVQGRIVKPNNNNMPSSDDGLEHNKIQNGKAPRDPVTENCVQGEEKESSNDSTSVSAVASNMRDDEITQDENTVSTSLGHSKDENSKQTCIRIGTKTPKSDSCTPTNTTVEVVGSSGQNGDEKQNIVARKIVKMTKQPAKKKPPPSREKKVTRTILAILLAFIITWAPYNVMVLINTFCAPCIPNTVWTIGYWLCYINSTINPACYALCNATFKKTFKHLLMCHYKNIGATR
The data set is described as above. The conditions noted are these: cloned human receptors in CHO cell membranes, [3H]N-methylscopolamine, average of four determinations. Here is the method: as §1, §2

Data set [5] addresses P450 CYP2D6 enzyme (Homo sapiens, UniProt P10635). The data set is described as follows: Protection from CYP2D6 metabolism (microsome incubation, HPLC). The conditions noted are these: approx. 10 μM [14C]-labeled compound, microsomes with CYP2D6 (20 pmol), 1 mM β-NADPH, pH 7.4, 37° C., 20 min. The data set is classed as in vitro ADME. Here is the method: [^14C]-labeled N,N-diisopropyl-3-(2-hydroxy-5-trifluoromethylphenyl)-3-phenylpropanamine is synthesized, following the general procedure of examples 1–9. Approximately 10 μM of the compound is incubated with microsomes containing P450 CYP2D6 enzyme (20 pmol) in 100 mM potassium phosphate buffer (pH 7.4) and 1 mM β-NADPH at 37° C. in a final volume of 250 μl for 20 min.
The incubations are analyzed for the parent drug and its metabolites by HPLC using standard procedures. The amount of each metabolite is calculated from the resulting radiochromatogram. The retention times of formed metabolites are compared with the retention times of synthesized reference standards, and the identity of the formed metabolites is further confirmed by electrospray ionization mass spectrometry.

P450 CYP2D6 enzyme, sequence (P10635 whole entry): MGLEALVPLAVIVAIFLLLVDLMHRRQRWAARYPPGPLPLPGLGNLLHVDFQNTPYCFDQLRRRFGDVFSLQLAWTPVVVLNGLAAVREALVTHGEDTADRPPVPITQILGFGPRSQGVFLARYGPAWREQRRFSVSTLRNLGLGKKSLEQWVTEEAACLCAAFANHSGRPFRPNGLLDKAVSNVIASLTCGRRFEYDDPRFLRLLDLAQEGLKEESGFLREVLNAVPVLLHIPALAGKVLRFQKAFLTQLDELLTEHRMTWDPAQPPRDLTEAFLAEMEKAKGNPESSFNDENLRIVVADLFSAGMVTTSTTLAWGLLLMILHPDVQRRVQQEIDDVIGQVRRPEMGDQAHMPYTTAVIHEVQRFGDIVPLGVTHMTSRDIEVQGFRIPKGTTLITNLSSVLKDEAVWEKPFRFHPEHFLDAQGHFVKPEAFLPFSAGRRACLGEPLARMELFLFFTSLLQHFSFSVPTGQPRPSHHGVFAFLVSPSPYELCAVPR
T3 sequence (P20309 whole entry): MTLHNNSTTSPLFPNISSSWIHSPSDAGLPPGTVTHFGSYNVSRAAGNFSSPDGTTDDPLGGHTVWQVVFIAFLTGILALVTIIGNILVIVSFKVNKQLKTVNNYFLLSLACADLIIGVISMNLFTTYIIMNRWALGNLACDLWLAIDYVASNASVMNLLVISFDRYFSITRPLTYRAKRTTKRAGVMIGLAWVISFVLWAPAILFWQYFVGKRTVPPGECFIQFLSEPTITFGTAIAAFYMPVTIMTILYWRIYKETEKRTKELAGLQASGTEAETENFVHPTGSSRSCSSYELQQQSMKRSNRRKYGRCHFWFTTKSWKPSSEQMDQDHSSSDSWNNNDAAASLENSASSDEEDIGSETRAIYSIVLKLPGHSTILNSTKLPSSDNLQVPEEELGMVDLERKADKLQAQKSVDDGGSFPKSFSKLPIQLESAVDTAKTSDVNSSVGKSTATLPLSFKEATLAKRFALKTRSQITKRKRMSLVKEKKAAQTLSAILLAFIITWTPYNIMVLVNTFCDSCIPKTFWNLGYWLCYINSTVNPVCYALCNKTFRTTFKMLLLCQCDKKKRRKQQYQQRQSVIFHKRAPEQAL

For orientation: Ki means a dissociation constant, usually derived from enzyme kinetics or from competition with a known ligand. A higher Ki goes with lower affinity. In the case of `Cc1ccc(O)c([C@H](CCN(C(C)C)C(C)C)c2ccccc2)c1` [tolterodine, 2-[(1R)-3-(diisopropylamino)-1-phenylpropyl)-4-methylphenol, reference compound], the Ki came to 0.64 nM in data set [1] and 0.79 nM in data set [2].

For the compound `CC(C)N(CCC(c1ccccc1)c1cc(C(F)(F)F)ccc1O)C(C)C` (racemic) [N,N-Diisopropyl-3-(2-hydroxy-5-trifluoro-methylphenyl)-3-phenylpropanamine], the Ki in data set [1] was 6 nM; in data set [2], 3.9 nM; in data set [3], 16 nM; in data set [4], 8.4 nM. In addition, in data set [5], the “oxidation/hydroxylation by P450 CYP2D6 enzyme” value is reported as “not readily hydroxylated at the 5-trifluoromethyl substituent”.
